Values quoted from earlier work as cited in patent US8674081B2, “Methods and compositions to elicit multivalent immune responses against dominant and subdominant epitopes, expressed on cancer cells and tumor stroma” (Mankind Corporation, priority 2005, dated 2014).

Experiments:
human PBMC = settings: stated as 'has been shown'
[1] = stated as 'has been shown'
MHC class I = settings: stated as 'has been shown'

Sequence	CTL / anti-tumor immune response, in vitro immunization of human PBMC (human PBMC)	CTL / anti-tumor immune response, in vivo immunization in mice [1]	MHC class I binding relative to native epitope (MHC class I)
SLLQHLIGL [PRAME425-433]	strong anti-tumor immune responses	strong anti-tumor immune responses	–
GLPSIPVHPI (listed as Homo sapiens) [PSMA288-297]	significant CTL responses	significant CTL responses	–
GLPSIPVHPV [PSMA288-297 I297V]	significant CTL responses	significant CTL responses	elevated
